Measured values from patent publication US8343993B2, “Hydroxyalkyl substituted imidazonaphthyridines” (3M Innovative Properties Company, priority 2005, dated 2013).
Structures can show the parent of a compound that is named as a salt. Where two headings read alike, the source gives them in different places.

What was measured:
IFN-α = experiment: Cytokine induction in human cells (PBMC): IFN-α secreted into culture media, ELISA; type: cell-based; conditions: median where several experiments; for minimal effective concentration: 30-0.014 μM, lowest concentration inducing over 20 pg/mL, read-out: Minimum Effective Concentration IFN
Excerpt: (§1) An in vitro human blood cell system is used to assess cytokine induction. Activity is based on the measurement of interferon (α) and tumor necrosis factor (α) (IFN-α, and TNF-α, respectively) secreted into culture media as described by Testerman et. al. in “Cytokine Induction by the Immunomodulators Imiquimod and S-27609”, Journal of Leukocyte Biology, 58, 365-372 (September, 1995).
(§2) Whole blood from healthy human donors is collected by venipuncture into vacutainer tubes or syringes containing EDTA. Peripheral blood mononuclear cells (PBMC) are separated from whole blood by density gradient centrifugation using HISTOPAQUE-1077 (Sigma, St. Louis, Mo.) or Ficoll-Paque Plus (Amersham Biosciences Piscataway, N.J.). Blood is diluted 1:1 with Dulbecco's Phosphate Buffered Saline (DPBS) or Hank's Balanced Salts Solution (HBSS). Alternately, whole blood is placed in Accuspin (Sigma) or LeucoSep (Greiner Bio-One, Inc., Longwood Fla.) centrifuge frit tubes containing density gradient medium. The PBMC layer is collected and washed twice with DPBS or HBSS and re-suspended at 4×10^6 cells/mL in RPMI complete. The PBMC suspension is added to 96 well flat bottom sterile tissue culture plates containing an equal volume of RPMI complete media containing test compound.
(§3) The compounds are solubilized in dimethyl sulfoxide (DMSO). The DMSO concentration should not exceed a final concentration of 1% for addition to the culture wells. The compounds are generally tested at concentrations ranging from 30-0.014 μM. Controls include cell samples with media only, cell samples with DMSO only (no compound), and cell samples with reference compound.
(§4) The solution of test compound is added at 60 μM to the first well containing RPMI complete and serial 3 fold dilutions are made in the wells. The PBMC suspension is then added to the wells in an equal volume, bringing the test compound concentrations to the desired range (usually 30-0.014 μM). The final concentration of PBMC suspension is 2×10^6 cells/mL. The plates are covered with sterile plastic lids, mixed gently and then incubated for 18 to 24 hours at 37° C. in a 5% carbon dioxide atmosphere.
(§5) Following incubation the plates are centrifuged for 10 minutes at 1000 rpm (approximately 200×g) at 4° C. The cell-free culture supernatant is removed and transferred to sterile polypropylene tubes. Samples are maintained at −30 to −70° C. until analysis. The samples are analyzed for IFN-α by ELISA and for TNF-α by IGEN/BioVeris Assay.
IFN-α concentration is determined with a human multi-subtype colorimetric sandwich ELISA (Catalog Number 41105) from PBL Biomedical Laboratories, Piscataway, N.J. Results are expressed in pg/mL.
Analysis of the data has two steps. First, the greater of the mean DMSO (DMSO control wells) or the experimental background (usually 20 pg/mL for IFN-α and 40 pg/mL for TNF-α) is subtracted from each reading. If any negative values result from background subtraction, the reading is reported as “*” and is noted as not reliably detectable. In subsequent calculations and statistics, “*” is treated as a zero. Second, all, background subtracted values are multiplied by a single adjustment ratio to decrease experiment to experiment variability. The adjustment ratio is the area of the reference compound in the new experiment divided by the expected area of the reference compound based on the past 61 experiments (unadjusted readings). […] The reference compound used is 2-[4-amino-2-ethoxymethyl-6,7,8,9-tetrahydro-α,α-dimethyl-1H-imidazo[4,5-c]quinolin-1-yl]ethanol hydrate (U.S. Pat. No. 5,352,784; Example 91) and the expected area is the sum of the median dose values from the past 61 experiments.
The minimum effective concentration is calculated based on the background-subtracted, reference-adjusted results for a given experiment and compound. […]

TNF-α = experiment: Cytokine induction in human cells (PBMC): TNF-α secreted into culture media, ORIGEN M-Series immunoassay; type: cell-based; conditions: median where several experiments; for minimal effective concentration: 30-0.014 μM, lowest concentration inducing over 40 pg/mL, read-out: Minimum Effective Concentration TNF; for Maximal Response TNF: Table 4, background-subtracted, reference-adjusted, * = below background
Excerpt: as §1, §2, §3, §4, §5
The TNF-α concentration is determined by ORIGEN M-Series Immunoassay and read on an IGEN M-8 analyzer from BioVeris Corporation, formerly known as IGEN International, Gaithersburg, Md. The immunoassay uses a human TNF-α capture and detection antibody pair (Catalog Numbers AHC3419 and AHC3712) from Biosource International, Camarillo, Calif. Results are expressed in pg/mL.
Analysis of the data has two steps. First, the greater of the mean DMSO (DMSO control wells) or the experimental background (usually 20 pg/mL for IFN-α and 40 pg/mL for TNF-α) is subtracted from each reading. If any negative values result from background subtraction, the reading is reported as “*” and is noted as not reliably detectable. In subsequent calculations and statistics, “*” is treated as a zero. Second, all, background subtracted values are multiplied by a single adjustment ratio to decrease experiment to experiment variability. The adjustment ratio is the area of the reference compound in the new experiment divided by the expected area of the reference compound based on the past 61 experiments (unadjusted readings). […] The reference compound used is 2-[4-amino-2-ethoxymethyl-6,7,8,9-tetrahydro-α,α-dimethyl-1H-imidazo[4,5-c]quinolin-1-yl]ethanol hydrate (U.S. Pat. No. 5,352,784; Example 91) and the expected area is the sum of the median dose values from the past 61 experiments. […]

SMILES | melting point [°C] | minimal effective concentration (IFN-α; Table 3, 18 to 24 hours) [µM] | minimal effective concentration (IFN-α; Table 4, 18 to 24 hours) [µM] | minimal effective concentration (TNF-α; Table 3, 18 to 24 hours) [µM] | minimal effective concentration (TNF-α; Table 4, 18 to 24 hours) [µM] | Maximal Response IFN (IFN-α; Table 4, background-subtracted, reference-adjusted) [pg/mL] | Maximal Response TNF (TNF-α)
COCCc1nc2c(N)nc3cccnc3c2n1CC(C)(C)O (as salt: hydrobromid) [Analog 2, 1-[4-amino-2-(2-methoxyethyl)-1H-imidazo[4,5-c][1,5]naphthyridin-1-yl]-2-methylpropan-2-ol] | 234 to 235 | – | – | – | – | – | –
CCOCc1nc2c(N)nc3cccnc3c2n1CC(C)(C)O [Analog 1, 1-(4-amino-2-ethoxymethyl-1H-imidazo[4,5-c][1,5]naphthyridin-1-yl)-2-methylpropan-2-ol] | 157 to 159 | 0.12 | 0.12 | 1.11 | 1.11 | – | –
COCCc1nc2c(N)nc3cccnc3c2n1CC(C)(C)O [Analog 2, 1-[4-amino-2-(2-methoxyethyl)-1H-imidazo[4,5-c][1,5]naphthyridin-1-yl]-2-methylpropan-2-ol, reference compound] | – | 0.04 | 0.04 | 0.37 | 0.37 | – | –
Cc1nc2c(N)nc3cccnc3c2n1CC(C)(C)O [Analog 3, 1-(4-amino-2-methyl-1H-imidazo[4,5-c][1,5]naphthyridin-1-yl)-2-methylpropan-2-ol, reference compound] | – | – | 0.37 | – | 3.33 | – | –
CCc1nc2c(N)nc3cccnc3c2n1CC(C)(C)O [Analog 4, 1-(4-amino-2-ethyl-1H-imidazo[4,5-c][1,5]naphthyridin-1-yl)-2-methylpropan-2-ol, reference compound] | – | – | 0.37 | – | 3.33 | – | –
CCCc1nc2c(N)nc3cccnc3c2n1CC(C)(C)O [Analog 5, 1-(4-amino-2-propyl-1H-imidazo[4,5-c][1,5]naphthyridin-1-yl)-2-methylpropan-2-ol, reference compound] | – | – | 0.12 | – | 1.11 | – | –
CCOCc1nc2c(N)nc3cccnc3c2n1CC(C)(C)NC(=O)C1CCCCC1 [Analog 6, N-[2-(4-amino-2-ethoxymethyl-1H-imidazo[4,5-c][1,5]naphthyridin-1-yl)-1,1-dimethylethyl]cyclohexanecarboxamide] | 210 to 211 | – | 0.014 | – | 0.014 | – | –
CCOCc1nc2c(N)nc3cccnc3c2n1CC(C)(C)NS(C)(=O)=O [Analog 7, N-[2-(4-amino-2-ethoxoxymethyl-1H-imidazo[4,5-c][1,5]naphthyridin-1-yl)-1,1-dimethylethyl]methanesulfonamide, reference compound] | – | – | 0.04 | – | 0.37 | 2465 | 9234 pg/mL
Cc1nc2c(N)nc3cccnc3c2n1CC(C)(C)F [Analog 8, 1-(2-fluoro-2-methylpropyl)-2-methyl-1H-imidazo[4,5-c][1,5]naphthyridin-4-amine, reference compound] | – | – | 0.37 | – | 10 | – | –
CCOCc1nc2c(N)nc3cccnc3c2n1CC(C)C [Analog 9, 2-ethoxymethyl-1-(2-methylpropyl)-1H-imidazo[4,5-c][1,5]naphthyridin-4-amine, reference compound] | – | – | 0.12 | – | 1.11 | – | –
Cc1nc2c(N)nc3cccnc3c2n1CC(C)C [Analog 10, 2-methyl-1-(2-methylpropyl)-1H-imidazo[4,5-c][1,5]naphthyridin-4-amine, reference compound] | – | – | 0.37 | – | 1.11 | – | –
CC(C)(Cn1c(CO)nc2c(N)nc3cccnc3c21)NC(=O)C1CCCCC1 [Example 1, N-[2-(4-Amino-2-hydroxymethyl-1H-imidazo[4,5-c][1,5]naphthyridin-1-yl)-1,1-dimethylethyl]cyclohexanecarboxamide] | 230 to 232 | – | 1.11 | – | 10 | – | –
CC(C)(Cn1c(CO)nc2c(N)nc3cccnc3c21)NS(C)(=O)=O [Example 2, N-[2-(4-Amino-2-hydroxymethyl-1H-imidazo[4,5-c][1,5]naphthyridin-1-yl)-1,1-dimethylethyl]methanesulfonamide] | 268 to 271 | – | 10 | – | 30 | – | –
CS(=O)(=O)NCCCCn1c(CCO)nc2c(N)nc3cccnc3c21 [Example 3, N-{4-{4-Amino-2-(2-hydroxyethyl)-1H-imidazo[4,5-c][1,5]naphthyridin-1-yl]butyl}methanesulfonamide] | 194 to 195 | – | 1.11 | – | 30 | – | –
CS(=O)(=O)NCCn1c(CO)nc2c(N)nc3cccnc3c21 [Example 4, N-[2-(4-Amino-2-hydroxymethyl-1H-imidazo[4,5-c][1,5]naphthyridin-1-yl)ethyl]methanesulfonamide] | 239 to 242 | – | 10 | – | > 30 | – | * (Below the experimental background of 40 pg/mL)
CS(=O)(=O)NCCn1c(CCO)nc2c(N)nc3cccnc3c21 [Example 5, N-{2-[4-Amino-2-(2-hydroxyethyl)-1H-imidazo[4,5-c][1,5]naphthyridin-1-yl]ethyl}methanesulfonamide] | 136 to 138 | – | 30 | – | > 30 | – | * (Below the experimental background of 40 pg/mL)
CC(C)(O)Cn1c(CO)nc2c(N)nc3cccnc3c21 [Example 6, 1-(4-Amino-2-hydroxymethyl-1H-imidazo[4,5-c][1,5]naphthyridin-1-yl)-2-methylpropan-2-ol] | 235 to 237 | 1.11 | 1.11 | 10 | 10 | – | –
